{"source": "patent US20210154162A1", "about": "“DRUG AND PHARMACEUTICAL COMPOSITION CONTAINING TRANSPORT PROTEIN INHIBITOR, AND USE” (Institute of Basic Medical Sciences Chinese Academy of …, priority 2018, published 2021)", "key": {"[1]": {"system": "SLC7A8 and PAT4", "test": "Kyn consumption by activated CD8+ T cells with SLC7A8/PAT4 inhibition or knockdown (ELISA)", "assay_type": "cell-based, mouse", "details": "Kyn 200 μM, 48 h", "description": "(3) Scramble shRNA or shRNA against SLC7A8 and PAT4 were delivered via retrovirus to activated CD8^+ T cells for 24 h, and then the transduced T cells were treated with Kyn (200 μM) for 48 h. Kyn levels in the supernatants were determined by ELISA and the Kyn consumption was calculated."}, "[2]": {"system": "PD-1", "test": "AhR activity and PD-1 expression in CD8+ T cells with SLC7A8/PAT4 inhibition or knockdown", "assay_type": "cell-based, mouse", "details": "for PD-1 upregulation: Kyn 200 μM, 48 h; for AhR activity: T cells treated with transporter inhibitor", "description": "(4) The experimental steps were the same as those of step (3), except that the expression of PD-1 was analyzed by flow cytometry."}, "[3]": {"system": "OVA-B16 TRCs", "test": "OT-1 T cell cytotoxicity to OVA-B16 TRCs with SLC7A8/PAT4 inhibition or knockdown", "assay_type": "cell-based, mouse", "details": "co-culture", "description": "(5) Activated OT-1 T cells were transfected with scramble shRNA, PAT4 shRNAs (Sh1 and Sh2) or SLC7A8 shRNAs (Sh1 and Sh2) for 72 h, and then co-cultured with OVA-B16 TRCs. TRC apoptosis was analyzed by flow cytometry."}, "[4]": {"system": "PD-1", "test": "Effect of SAR and BCH on PD-1 expression in mouse CD8+ T cells (flow cytometry)", "assay_type": "cell-based", "details": "200 μM Kyn + 10 mM SAR or 100 μM BCH, 48 h", "description": "Mouse splenic CD8^+ T cells were obtained by magnetic bead sorting, and seeded into a U-shaped bottom 96-well plate (100000 cells/well) while anti-CD3/CD28 magnetic beads were added to activate T cells. The culture medium was RPMI-1640 added with 10 ng/mL mouse IL-2 and […] β-mercaptoethanol. Cells were grouped and treated with drugs as follows.\n(§1) Control group 1 (PBS): culture medium+PBS;\n(§2) Experimental group 2 (Kyn): culture medium+200 μM Kyn;\nExperimental group 3 (Kyn+SAR): culture medium+200 μM Kyn+10 mM SAR;\nExperimental group 4 (Kyn+BCH): culture medium+200 μM Kyn+100 μM BCH;\n(§3) The expression level of PD-1 in CD8^+ T cells of each group was determined by flow cytometry after 48 h."}, "[5]": {"system": "OVA-B16 cells", "test": "Effect of SAR and BCH on killing of OVA-B16 cells by OT-1 CD8+ T cells (apoptosis, flow cytometry)", "assay_type": "cell-based, mouse", "details": "T cells pretreated 24 h with 10 mM SAR or 100 μM BCH; co-culture 1:10, 4 hours", "description": "Splenic CD8^+ T cells of OT-1 mouse were obtained by magnetic bead sorting and seeded into a U-shaped bottom 96-well plate (100000 cells/well). Cells were grouped and treated with drugs as follows.\nas §1\nExperimental group 2 (SAR): culture medium+10 mM SAR;\nExperimental group 3 (BCH): culture medium+100 μM BCH;\nAfter T cells were pretreated for 24 hours, 3D-cultured OVA-B16 cells were co-cultured with OT-1 CD8^+ T cells at a ratio of 1:10, and the apoptosis of OVA-B16 cells was determined by flow cytometry after 4 hours."}, "[6]": {"system": "PD-1", "test": "Effect of SAR and BCH on PD-1 expression in human peripheral blood CD8+ T cells (flow cytometry)", "assay_type": "cell-based", "details": "breast cancer patients, 200 μM Kyn + 10 mM SAR or 100 μM BCH, 48 h", "description": "Mononuclear cells were isolated and obtained from the peripheral whole blood of breast cancer patients by using Ficoll. CD8^+ T cells were sorted by magnetic beads, and seeded into a U-shaped bottom 96-well plate (100000 cells/well) while anti-CD3/CD28 magnetic beads were added to activate T cells. The culture medium was RPMI-1640 added with 10 ng/mL human IL-2. Cells were grouped and treated with drugs as follows.\nas §1, §2\nExperimental group 3 (Kyn+SAR): culture medium+200 μM Kyn+10 mM SAR; Experimental group 4 (Kyn+BCH): culture medium+200 μM Kyn+100 μM BCH;\nas §3"}, "[7]": {"system": "AhR", "test": "PD-1 expression in activated CD8+ T cells treated with Kyn plus AhR inhibitor (flow cytometry)", "assay_type": "cell-based, mouse", "details": "Kyn plus inhibitor (DMF 10 or 20 μM), 72 h", "description": "(4) CD8^+ T cells activated by anti-CD3/CD28 beads were treated with PBS, Kyn or Kyn/DMF (10 or 20 μM) for 72 h. The expression of PD-1 was determined by flow cytometry."}, "[8]": {"system": "PAT4 and SLC7A8", "test": "PAT4 and SLC7A8 expression in activated CD8+ T cells (real-time PCR, immunostaining)", "assay_type": "cell-based, mouse", "details": "activated CD8+ T cells, Kyn/CH-223191 (10 μM) or Kyn/DMF (20 μM), 48 h", "description": "(2) Activated CD8^+ T cells were treated with PBS or Kyn (200 μM) for 24 h. The expression of PAT4 and SLC7A8 was determined by real-time PCR (left) and immunostaining (right). Bar, […].\n(6) The mRNA expression of PAT4 and SLC7A8 was determined in activated CD8^+ T cells treated with PBS, Kyn, Kyn/CH-223191 (10 μM) or Kyn/DMF (20 μM) for 48 h."}, "[9]": {"system": "PD-1", "test": "PD-1 expression in human CD8+ T cells treated with Kyn and AhR inhibitors (flow cytometry)", "assay_type": "cell-based", "details": "human CD8+ T cells, Kyn plus inhibitor (DMF 20 μM), 48 h", "description": "(4) CD8^+ T cells isolated from PBMCs of patients with breast cancer or lung cancer were activated by anti-CD3/CD28 beads and treated with PBS, Kyn (200 μM) or Kyn/DMF (20 μM) for 48 h. The expression of PD-1 was determined by flow cytometry.\n(5) CD8^+ T cells isolated from patients with breast cancer or lung cancer were treated with DMF (20 μM) for 48 h. PD-1 expression was determined by flow cytometry (n=6)."}, "[10]": {"system": "PAT4 and SLC7A8", "test": "PAT4 and SLC7A8 expression in CD8+ T cells from breast cancer patients (real-time PCR)", "assay_type": "cell-based, human", "details": "Kyn/DMF (20 μM) or Kyn/CH (50 μM), 48 h", "description": "(8) CD8^+ T cells from breast cancer patients were treated with PBS, Kyn ([…] (20 μM) or Kyn/CH (50 μM) for 48 h. The expression of PAT4 and SLC7A8 was determined by real-time PCR. The determination results were as shown in FIG. 7I."}, "[11]": {"system": "PD-1", "test": "PD-1 expression in activated CD8+ T cells treated with TCDD (qPCR, flow cytometry)", "assay_type": "cell-based, mouse", "details": "48 h", "description": "(7) Activated CD8^+ T cells were treated with TCDD for 48 h and then PD-1 expression was analyzed by qPCR (left) and flow cytometry (right). The data represented mean±SEM."}, "[12]": {"system": "PD-1", "test": "PD-1 expression in anti-CD3/CD28 bead-activated CD8+ T cells treated with Kyn or other tryptophan metabolites (flow cytometry)", "assay_type": "cell-based, mouse", "details": "other tryptophan metabolites 500 μM, 24 h", "description": "(4) The isolated splenic CD8^+ T cells were incubated with anti-CD3/CD28 beads in the presence of different concentrations of Kyn. PD-1 expression was determined by flow cytometry.\n(5) The experimental steps were the same as those of step (4), except that CD8^+ T cells were treated with 200 μM Kyn for different time periods as shown in FIG. 2E.\n(6) Anti-CD3/CD28 bead-activated CTLs were treated with PBS, 200 μM Kyn or other metabolites (500 μM) from the tryptophan pathway (melatonin, kynurinic acid and indoxyle sulphate). After 24 h, PD-1 expression was determined by flow cytometry."}, "[13]": {"target": "T1, tryptophan transporter SLC1A5 (Mus musculus, UniProt P51912)", "T1 construct": "endogenous in cells; host or cells: mouse OVA-B16 melanoma cells", "T1 sequence (P51912 1-553)": "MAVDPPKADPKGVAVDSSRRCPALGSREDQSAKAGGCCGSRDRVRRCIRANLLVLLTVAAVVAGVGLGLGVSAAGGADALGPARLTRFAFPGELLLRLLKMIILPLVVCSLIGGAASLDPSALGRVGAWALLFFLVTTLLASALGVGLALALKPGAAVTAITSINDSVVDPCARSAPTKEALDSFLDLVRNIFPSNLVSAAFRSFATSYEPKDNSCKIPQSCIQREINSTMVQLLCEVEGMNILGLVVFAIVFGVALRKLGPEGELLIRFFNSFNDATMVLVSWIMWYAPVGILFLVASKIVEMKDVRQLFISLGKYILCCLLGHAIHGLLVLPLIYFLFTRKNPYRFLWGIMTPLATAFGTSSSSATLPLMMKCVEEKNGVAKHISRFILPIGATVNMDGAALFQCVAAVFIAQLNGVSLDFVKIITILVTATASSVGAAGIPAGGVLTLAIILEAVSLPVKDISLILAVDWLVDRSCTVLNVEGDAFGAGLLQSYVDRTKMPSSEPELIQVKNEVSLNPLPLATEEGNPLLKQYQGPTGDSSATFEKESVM", "test": "Effect of GPNA on the uptake of tryptophan by tumor cells (ELISA of lysates)", "assay_type": "cell-based", "details": "OVA-B16 cells, 50 ng/mL IFN-γ, 24 h", "description": "Mouse OVA-B16 cells were cultured in RPMI-1640 culture medium in vitro and were group and treated as follows.\nas §1\nControl group 2 (GPNA): culture medium+10 μM GPNA;\nExperimental group 3 (IFN-γ): culture medium+50 ng/mL IFN-γ;\nExperimental group 4 (IFN-γ+GPNA): culture medium+50 ng/mL IFN-γ+10 μM GPNA;\nThe cells in each group were collected after 24 h and ultrasonically broken, the concentrations of tryptophan in the lysates were determined by ELISA, and BCA protein assay was carried out at the same time."}}, "note": "Counter-ions that a name gives are not always drawn."}
{"molecule": "NC1(C(=O)O)CC2CCC1C2", "note": "(centres unmarked) [BCH, 2-amino-2-norbornanecarboxylic acid]", "values": [{"measurement": "entry of Kyn into T cells", "setting": "[1]", "result": "blocked"}, {"measurement": "PD-1 upregulation", "setting": "[2]", "result": "abolished"}, {"measurement": "AhR activity", "setting": "[2]", "result": "inhibited"}, {"measurement": "OT-1 T cell cytotoxicity to OVA-B16 TRCs", "setting": "[3]", "result": "enhanced"}, {"measurement": "expression of PD-1 in CD8+ T cells", "setting": "[4]", "result": "significantly reducing"}, {"measurement": "apoptosis ratio of OVA-B16 tumor cells", "setting": "[5]", "result": "increased significantly"}, {"measurement": "expression of PD-1 in CD8+ T cells", "setting": "[6]", "result": "significantly reducing"}]}
{"molecule": "Cc1ccccc1N=Nc1ccc(NC(=O)c2ccnn2C)c(C)c1", "note": "[CH-223191]", "values": [{"measurement": "Kyn-dependent upsurge of PD-1", "setting": "[7]", "result": "thwarted"}, {"measurement": "Kyn-induced upregulation of SLC7A8 and PAT4", "setting": "[8]", "result": "effectively inhibiting"}, {"measurement": "Kyn-induced PD-1 upregulation", "setting": "[9]", "result": "inhibited"}, {"measurement": "Kyn-induced upregulation of SLC7A8 and PAT4", "setting": "[10]", "result": "blocked"}]}
{"molecule": "CNCC(=O)O", "note": "[SAR, sarcosine]", "values": [{"measurement": "entry of Kyn into T cells", "setting": "[1]", "result": "blocked"}, {"measurement": "PD-1 upregulation", "setting": "[2]", "result": "abolished"}, {"measurement": "AhR activity", "setting": "[2]", "result": "inhibited"}, {"measurement": "OT-1 T cell cytotoxicity to OVA-B16 TRCs", "setting": "[3]", "result": "enhanced"}, {"measurement": "expression of PD-1 in CD8+ T cells", "setting": "[4]", "result": "significantly reducing"}, {"measurement": "apoptosis ratio of OVA-B16 tumor cells", "setting": "[5]", "result": "increased significantly"}, {"measurement": "expression of PD-1 in CD8+ T cells", "setting": "[6]", "result": "significantly reducing"}]}
{"molecule": "Clc1cc2c(cc1Cl)Oc1cc(Cl)c(Cl)cc1O2", "note": "[TCDD]", "values": [{"measurement": "PD-1 expression", "setting": "[11]", "result": "upregulated"}]}
{"molecule": "O=S(=O)(O)Oc1c[nH]c2ccccc12", "note": "[indoxyl sulfate]", "values": [{"measurement": "PD-1 expression", "setting": "[12]", "result": "none of them was able to alter PD-1 expression"}]}
{"molecule": "O=C(O)c1cc(=O)c2ccccc2[nH]1", "note": "[kynurenic acid]", "values": [{"measurement": "PD-1 expression", "setting": "[12]", "result": "none of them was able to alter PD-1 expression"}]}
{"molecule": "COc1ccc2[nH]cc(CCNC(C)=O)c2c1", "note": "[melatonin]", "values": [{"measurement": "PD-1 expression", "setting": "[12]", "result": "none of them was able to alter PD-1 expression"}]}
{"molecule": "IFN-γ: recombinant IFN-γ purchased from R & D Systems (protein, UniProt P01579 24-161, looked up) Interferon gamma: QDPYVKEAENLKKYFNAGHSDVADNGTLFLGILKNWKEESDRKIMQSQIVSFYFKLFKNFKDDQSIQKSVETIKEDMNVKFFNSNKKKRDDFEKLTNYSVTDLNVQRKAIHELIQVMAELSPAAKTGKRKRSQMLFRG", "values": [{"measurement": "uptake of tryptophan by tumor cells", "setting": "[13]", "result": "significantly increasing"}]}
